The target of one test is T1, PsaL (Chlamydomonas reinhardtii, UniProt A8IL32).
T1 construct: gene CHLRE_12g486300v5; mature PSI core subunit within native PSI-LHCI-LHCII supercomplex purified from state 2 thylakoids
T1 sequence (A8IL32 36-196): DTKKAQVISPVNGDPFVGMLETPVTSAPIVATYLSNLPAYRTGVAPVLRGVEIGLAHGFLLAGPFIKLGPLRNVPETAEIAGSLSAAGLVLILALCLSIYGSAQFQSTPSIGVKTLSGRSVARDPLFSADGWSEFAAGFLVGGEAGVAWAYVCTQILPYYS
In kind it is binding. The note with it: Bcr201, Bcr205, Bcr206; native supercomplex.

For the next test, the target named is T2, PsaA (Chlamydomonas reinhardtii, UniProt P12154).
T2 construct: PSI core subunit within native PSI-LHCI-LHCII supercomplex purified from state 2 thylakoids
In kind it is binding. The conditions noted are these: Bcr850; native supercomplex.

The target of the next test is T3, PsaH (Chlamydomonas reinhardtii, UniProt P13352).
T3 construct: mature PSI core subunit within native PSI-LHCI-LHCII supercomplex purified from state 2 thylakoids
T3 sequence (P13352 31-130): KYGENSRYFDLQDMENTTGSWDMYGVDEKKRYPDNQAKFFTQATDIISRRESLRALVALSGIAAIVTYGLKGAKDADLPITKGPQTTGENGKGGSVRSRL
In kind it is binding. The conditions noted are these: Bcr204; native supercomplex.

The next test concerns the target T4, PsaD (Chlamydomonas reinhardtii (endogenous …, UniProt Q39615 36-196)).
T4 construct: PSI core subunit PsaD of C. reinhardtii; source: endogenous, C. reinhardtii CC-137 cells in state 2; thylakoid membranes solubilised with α-DDM, PSI-LHCI-LHCII purified (sucrose density gradient, gel filtration)
T4 sequence (looked up): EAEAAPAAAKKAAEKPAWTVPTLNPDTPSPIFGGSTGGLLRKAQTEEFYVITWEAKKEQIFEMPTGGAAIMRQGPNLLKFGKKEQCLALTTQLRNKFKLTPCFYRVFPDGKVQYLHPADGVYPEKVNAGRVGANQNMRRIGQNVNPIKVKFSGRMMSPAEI
The test can be described thus: cryo-EM structure; single-particle cryo-EM of the PSI-LHCI-LHCII supercomplex purified from state 2 cells; 3.42 Å overall; 10 mM Hepes-KOH pH 7.5, 50 mM NaCl, 1 mM NaN3, 10 mM NaF, 0.01% α-DDM. The conditions noted are these: both partners purified.

T2 sequence (P12154 whole entry): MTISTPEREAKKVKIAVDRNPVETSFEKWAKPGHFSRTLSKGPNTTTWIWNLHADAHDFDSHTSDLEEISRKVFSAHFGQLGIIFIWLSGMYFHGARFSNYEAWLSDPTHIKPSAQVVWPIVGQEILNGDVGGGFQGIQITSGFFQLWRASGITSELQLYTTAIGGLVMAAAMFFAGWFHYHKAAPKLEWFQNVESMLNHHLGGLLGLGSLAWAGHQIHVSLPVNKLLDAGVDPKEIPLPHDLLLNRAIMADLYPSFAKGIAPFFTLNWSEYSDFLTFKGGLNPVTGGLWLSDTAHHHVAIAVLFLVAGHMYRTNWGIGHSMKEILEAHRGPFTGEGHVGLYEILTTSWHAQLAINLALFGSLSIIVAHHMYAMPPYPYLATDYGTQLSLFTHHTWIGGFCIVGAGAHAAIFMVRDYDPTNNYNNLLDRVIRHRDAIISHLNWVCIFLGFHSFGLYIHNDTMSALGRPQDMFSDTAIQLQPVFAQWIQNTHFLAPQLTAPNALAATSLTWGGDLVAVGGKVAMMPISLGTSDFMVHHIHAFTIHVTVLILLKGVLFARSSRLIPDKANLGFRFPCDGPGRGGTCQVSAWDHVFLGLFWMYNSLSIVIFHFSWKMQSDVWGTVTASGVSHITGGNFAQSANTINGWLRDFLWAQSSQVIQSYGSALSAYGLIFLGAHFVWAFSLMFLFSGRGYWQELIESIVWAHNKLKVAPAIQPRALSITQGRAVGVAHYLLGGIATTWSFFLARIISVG

In the case of `CC1=C(/C=C/C(C)=C/C=C/C(C)=C/C=C/C=C(C)/C=C/C=C(C)/C=C/C2=C(C)CCCC2(C)C)C(C)(C)CCC1` [BCR], the “cryo-EM structure, 3.42 Å” value at PsaL is “three BCRs (Bcr201, Bcr205 and Bcr206) were observed in the green algal PsaL”; at PsaA, “Bcr850 of PsaA interacts with helix A of PsaO”; on PsaH it was “one BCR (Bcr204) were found to bind to PsaH in the present structure”.

B1: PsaH (natural protein, UniProt P13352 31-130, looked up)
chain: KYGENSRYFDLQDMENTTGSWDMYGVDEKKRYPDNQAKFFTQATDIISRRESLRALVALSGIAAIVTYGLKGAKDADLPITKGPQTTGENGKGGSVRSRL
notes: PSI core subunit PsaH of C. reinhardtii; also called Cr-PsaH; source: endogenous, C. reinhardtii CC-137 cells in state 2; thylakoid membranes solubilised with α-DDM, PSI-LHCI-LHCII purified (sucrose density gradient, gel filtration)
Turning to B1, the binding result with PsaD was “binds”.

For the origin of these results see PMC7889890, “Structure of photosystem I-LHCI-LHCII from the green alga Chlamydomonas reinhardtii in State 2” (Nature Communications, 2021).
